Source: PMC9331314, “Synthesis and Antiviral Properties of Camphor-Derived Iminothiazolidine-4-Ones and 2,3-Dihydrothiazoles” (Molecules, 2022)
Like-named read-outs stand apart in the source and are kept apart here.

How the values were obtained:
[1] = system: Marburg pseudovirus (GP MARV)
[2] = in vitro; settings: human
[3] = system: vaccinia virus (strain Copenhagen); test: microbe, parasite or virus in culture; settings: Orthopoxvirus vaccinia, Vero, 96 h
[4] = system: Marburg pseudovirus (GP MARV); test: microbe, parasite or virus in culture; settings: 24 h
[5] = system: vaccinia virus (strain Copenhagen)
[6] = in vitro; settings: African green monkey

SMILES | SI (CC50/IC50) [1] | CC50 [2] [µM] | IC50 [3] [µM] | IC50 [4] [µM] | SI (CC50/IC50) [5] | CC50 [6] [µM] | IC50 [1] [µM]
C=CCNC(=S)N/N=C1\C[C@@H]2CC[C@@]1(C)C2(C)C [2′b, (E)-N-allyl-2-((1S,4S)-1,7,7-trimethylbicyclo[2.2.1]heptan-2-ylidene)hydrazinecarbothioamide] | 15 | 56.5 ± 8.2 | 12 ± 2.9 | 3.8 ± 1.9 | 3 | 35 ± 4.6 | 
CCNC(=S)N/N=C1\C[C@@H]2CC[C@@]1(C)C2(C)C [2′c, (E)-N-ethyl-2-((1S,4S)-1,7,7-trimethylbicyclo[2.2.1]heptan-2-ylidene)hydrazinecarbothioamide] | 16 | 530 ± 35.4 | 14 ± 2.6 | 9.1 ± 3.9 | 3 | 45 ± 6.6 | 
CC1(C)[C@H]2CC[C@]1(C)/C(=N\N=C1\SCC(=O)N1c1ccccc1)C2 [3′a, (Z)-3-phenyl-2-((E)-((1S,4S)-1,7,7-trimethylbicyclo[2.2.1]heptan-2-ylidene)hydrazono)thiazolidin-4-one] |  |  | 75 ± 13.7 |  | 4 | 290 ± 36.9 | 
C=CCN1C(=O)CS/C1=N/N=C1/C[C@@H]2CC[C@@]1(C)C2(C)C [3′b, (Z)-3-allyl-2-((E)-((1S,4S)-1,7,7-trimethylbicyclo[2.2.1]heptan-2-ylidene)hydrazono)thiazolidin-4-one] | 3 | 121 ± 6.5 | 66 ± 12.9 | 45.8 ± 6.5 | 2 | 160 ± 20.8 | 
CCN1C(=O)CS/C1=N/N=C1/C[C@@H]2CC[C@@]1(C)C2(C)C [3′c, (Z)-3-ethyl-2-((E)-((1S,4S)-1,7,7-trimethylbicyclo[2.2.1]heptan-2-ylidene)hydrazono)thiazolidin-4-one] | 3 | 170 ± 40.9 | 64 ± 12.3 | 68.2 ± 20.4 | 4 | 220 ± 28.6 | 
CN1C(=O)CS/C1=N/N=C1/C[C@@H]2CC[C@@]1(C)C2(C)C [3′d, (Z)-3-methyl-2-((E)-((1S,4S)-1,7,7-trimethylbicyclo[2.2.1]heptan-2-ylidene)hydrazono)thiazolidin-4-one] | 6 | 182 ± 14.3 |  | 28.6 ± 10.7 |  | 250 ± 31.4 | 
Nc1ccn(C[C@@H](CO)OCP(=O)(O)O)c(=O)n1 [Cidofovir, reference compound] |  |  | 40.1 ± 2.8 |  | 12 | 475 ± 74.9 | 
C=CCN1C(=O)CS/C1=N/N=C1/C[C@H]2CC[C@]1(C)C2(C)C [Compound 3b, (Z)-3-allyl-2-((E)-((1R,4R)-1,7,7-trimethylbicyclo[2.2.1]heptan-2-ylidene)hydrazono)thiazolidin-4-one] | 5 | 108 ± 6.5 | 72 ± 12.2 | 22.9 ± 0.7 |  | 99 ± 11.8 | 
CCN1C(=O)CS/C1=N/N=C1/C[C@H]2CC[C@]1(C)C2(C)C [Compound 3c, (Z)-3-ethyl-2-((E)-((1R,4R)-1,7,7-trimethylbicyclo[2.2.1]heptan-2-ylidene)hydrazono)thiazolidin-4-one] | 2 | 54.1 ± 9.2 | 24 ± 3.9 | 30.7 ± 6.8 | 4 | 87 ± 10.1 | 
CN1C(=O)CS/C1=N/N=C1/C[C@H]2CC[C@]1(C)C2(C)C [Compound 3d, (Z)-3-methyl-2-((E)-((1R,4R)-1,7,7-trimethylbicyclo[2.2.1]heptan-2-ylidene)hydrazono)thiazolidin-4-one] |  |  | 100 ± 17.6 |  | 3 | 310 ± 41.3 | 
CC1(C)S/C(=N/N=C2/C[C@H]3CC[C@]2(C)C3(C)C)N(c2ccccc2)C1=O [Compound 4a, (Z)-5,5-dimethyl-3-phenyl-2-((E)-((1R,4R)-1,7,7-trimethylbicyclo[2.2.1]heptan-2-ylidene)hydrazono)thiazolidin-4-one] | 3 | 325 ± 36.1 | 32.5 ± 2.8 | 94.7 ± 8.1 | 8 | 270 ± 35.2 | 
CCN1C(=O)C(C)(C)SC1=NN=C1CC2CCC1(C)C2(C)C [Compound 4c, ((Z)-3-ethyl-5,5-dimethyl-2-((E)-((1R,4R)-1,7,7-trimethylbicyclo[2.2.1]heptan-2-ylidene)hydrazono)thiazolidin-4-one] | 5 | 778 ± 82.8 |  | 171 ± 46.7 |  | 290 ± 34.9 | 
C=CCn1c(-c2ccc(Cl)cc2)cs/c1=N/N=C1\C[C@H]2CC[C@]1(C)C2(C)C [Compound 5b, (E)-3-allyl-4-(4-chlorophenyl)-2-((E)-((1R,4R)-1,7,7-trimethylbicyclo[2.2.1]heptan-2-ylidene)hydrazono)-2,3-dihydrothiazole] | 3 | 80 ± 20 | 2.5 ± 0.3 | 30 ± 10 | 8 | 19 ± 2.8 | 
CCn1c(-c2ccc(Cl)cc2)cs/c1=N/N=C1\C[C@H]2CC[C@]1(C)C2(C)C [Compound 5c, (E)-4-(4-chlorophenyl)-3-ethyl-2-((E)-((1R,4R)-1,7,7-trimethylbicyclo[2.2.1]heptan-2-ylidene)hydrazono)-2,3-dihydrothiazole] | 2 | 51.6 ± 15.5 | 12 ± 1.5 | 25.8 ± 5.2 | 6 | 70 ± 8.9 | 
Cc1ccc(-c2cs/c(=N/N=C3\C[C@H]4CC[C@]3(C)C4(C)C)n2-c2ccccc2)cc1 [Compound 6a, (E)-3-phenyl-4-p-tolyl-2-((E)-((1R,4R)-1,7,7-trimethylbicyclo[2.2.1]heptan-2-ylidene)hydrazono)-2,3-dihydrothiazole] | 2 | 135 ± 19.2 |  | 60.2 ± 14.4 |  | 98 ± 11.6 | 
C=CCn1c(-c2ccc(C)cc2)cs/c1=N/N=C1\C[C@H]2CC[C@]1(C)C2(C)C [Compound 6b, (E)-3-allyl-4-p-tolyl-2-((E)-((1R,4R)-1,7,7-trimethylbicyclo[2.2.1]heptan-2-ylidene)hydrazono)-2,3-dihydrothiazole] | 7 | 39.5 ± 4.8 | 4 ± 0.6 | 5.3 ± 2.6 | 3 | 12 ± 2.1 | 
CCn1c(-c2ccc(C)cc2)cs/c1=N/N=C1\C[C@H]2CC[C@]1(C)C2(C)C [Compound 6c, (E)-3-ethyl-4-p-tolyl-2-((E)-((1R,4R)-1,7,7-trimethylbicyclo[2.2.1]heptan-2-ylidene)hydrazono)-2,3-dihydrothiazole] |  |  |  |  |  | 15 ± 2.9 | 
Cc1ccc(-c2cs/c(=N/N=C3\C[C@H]4CC[C@]3(C)C4(C)C)n2C)cc1 [Compound 6d, (E)-3-methyl-4-p-tolyl-2-((E)-((1R,4R)-1,7,7-trimethylbicyclo[2.2.1]heptan-2-ylidene)hydrazono)-2,3-dihydrothiazole] | 3 | 79.2 ± 8.5 | 5.1 ± 0.7 | 28.3 ± 8.5 | 3 | 17 ± 3.1 | 
COc1ccc(-c2cs/c(=N/N=C3\C[C@H]4CC[C@]3(C)C4(C)C)n2-c2ccccc2)cc1 [Compound 7a, (E)-4-(4-methoxyphenyl)-3-phenyl-2-((E)-((1R,4R)-1,7,7-trimethylbicyclo[2.2.1]heptan-2-ylidene)hydrazono)-2,3-dihydrothiazole] | 8 | 973 ± 61.6 |  | 127 ± 23.2 |  | 232 ± 29.6 | 
C=CCn1c(-c2ccc(OC)cc2)cs/c1=N/N=C1\C[C@H]2CC[C@]1(C)C2(C)C [Compound 7b, (E)-3-allyl-4-(4-methoxyphenyl)-2-((E)-((1R,4R)-1,7,7-trimethylbicyclo[2.2.1]heptan-2-ylidene)hydrazono)-2,3-dihydrothiazole] | 3 | 37.9 ± 8.3 |  | 13.9 ± 2.5 |  | 200 ± 23.1 | 
CCn1c(-c2ccc(OC)cc2)cs/c1=N/N=C1\C[C@H]2CC[C@]1(C)C2(C)C [Compound 7c, (E)-3-ethyl-4-(4-methoxyphenyl)-2-((E)-((1R,4R)-1,7,7-trimethylbicyclo[2.2.1]heptan-2-ylidene)hydrazono)-2,3-dihydrothiazole] | 9 | 117 ± 10.4 |  | 13 ± 5.2 |  |  | 
COc1ccc(-c2cs/c(=N/N=C3\C[C@H]4CC[C@]3(C)C4(C)C)n2C)cc1 [Compound 7d, (E)-4-(4-methoxyphenyl)-3-methyl-2-((E)-((1R,4R)-1,7,7-trimethylbicyclo[2.2.1]heptan-2-ylidene)hydrazono)-2,3-dihydrothiazole] | 4 | 97.4 ± 21.6 |  |  |  |  | 27.1 ± 8.1
CC1(C)[C@@H]2CC[C@@]1(C)/C(=N/N=c1/scc(-c3ccccc3)n1-c1ccccc1)C2 [Compound 8a, (E)-3,4-diphenyl-2-((E)-((1R,4R)-1,7,7-trimethylbicyclo[2.2.1]heptan-2-ylidene)hydrazono)-2,3-dihydrothiazole] | 3 | 89.6 ± 19.9 | 18 ± 1.9 | 29.9 ± 5 | 7 | 122 ± 14.7 | 
C=CCn1c(-c2ccccc2)cs/c1=N/N=C1\C[C@H]2CC[C@]1(C)C2(C)C [Compound 8b, (E)-3-allyl-4-phenyl-2-((E)-((1R,4R)-1,7,7-trimethylbicyclo[2.2.1]heptan-2-ylidene)hydrazono)-2,3-dihydrothiazole] | <2 | < 41 | 3 ± 0.4 | 19.2 ± 2.7 | 6 | 17 ± 2.9 | 
CCn1c(-c2ccccc2)cs/c1=N/N=C1\C[C@H]2CC[C@]1(C)C2(C)C [Compound 8c, (E)-3-ethyl-4-phenyl-2-((E)-((1R,4R)-1,7,7-trimethylbicyclo[2.2.1]heptan-2-ylidene)hydrazono)-2,3-dihydrothiazole] | <2 | < 42.4 | 3 ± 0.5 | 28.3 ± 2.8 | 6 | 17 ± 3.3 | 
CN[C@H]1CC[C@@H](c2ccc(Cl)c(Cl)c2)c2ccccc21 [Sertraline, reference compound] |  | 408 ± 35.9 |  |  |  |  | 
